pIC50: −log10 of the molar value. Where two headings read alike, the source gives them in different places.
Key:
[1] = system: M481, M487 and M610 melanoma cells carrying BRAF V600E mutations; format: in vivo, NSG mice
Method: M481, M487 and M610 melanoma cells carrying BRAF V600E mutations were implanted in s.c. tissue on right flanks of NSG mice. When tumors became palpable, mice were randomized to four different treatments. […] Control mice received vehicle only (200 μl 0.5% promethylcellulose, 0.2% Tween80 and 5% DMSO per day). Tumors were measured every 2-3 days with calipers.
In these experiments metastatic melanoma cells were injected subcutaneously in the right flanks of immunocompromised NSG mice. When tumors became palpable, mice were randomized to four different treatments. […] Control mice received vehicle only (200 μl 0.5% promethylcellulose, 0.2% Tween80 and 5% DMSO per day). Tumors were measured every 2-3 days with calipers.

[2] = system: M481 metastatic melanoma cells; assay: M481 melanoma xenograft tumor growth in NSG mice (i.p. agents, PLX 4720 chow); format: in vivo
Method: M481 metastatic melanoma cells were implanted in s.c. tissue on right flanks of NSG mice. […] For PLX4720 treatment mice were switched to either a chow diet containing 417 mg/kg PLX4720 or the control chow containing no compound. Tumors were measured every 2-3 day with calipers. Mean±SD is reported (* P<0.05, *** P<0.0005, ns: not significant; two-tailed Student's t test). FIG. 1B, Representative bioluminescence images of melanomas at day 14.
M481 metastatic melanoma cells were implanted in s.c. tissue on right flanks of NSG mice. When tumors became palpable mice were i.p. injected with RO 31-8220 (3 mg/kg) or DMSO. […] Tumors were measured every 2-3 day with calipers. […]
M481 metastatic melanoma cells were implanted in s.c. tissue on right flanks of NSG mice. […] Tumors were measured every 2-3 day with calipers. […]
Transplanting melanoma cells. After sorting, cells were counted and resuspended in staining medium (L15 medium containing 1 mg/ml BSA, 1% penicillin/streptomycin and 10 mM HEPES [pH7.4]) with 25% high protein Matrigel (product 354248; BD Biosciences). […]
Bioluminescence imaging (BLI). Mice were injected with 100 luciferase-GFP+ cells on the right flank and monitored until tumor diameters approached 20 mm, at which point they were imaged along with an uninjected control mouse on an IVIS Imaging System 200 Series (Calliper Life Sciences) using Living Image software. […]

[3] = biological target: MSK1 (Homo sapiens, UniProt O75582); conditions: cited from earlier work
[4] = system: MAPK; conditions: rat adipocytes and L6 myotubes; cited from earlier work
[5] = system: glycogen synthase; conditions: rat adipocytes and L6 myotubes; cited from earlier work
[6] = system: ERK2; conditions: rat adipocytes and L6 myotubes; cited from earlier work
[7] = system: JNK; conditions: rat adipocytes and L6 myotubes; cited from earlier work
[8] = system: PKGα; conditions: cited from earlier work

Chain of MSK1 (O75582 whole entry, species assumed): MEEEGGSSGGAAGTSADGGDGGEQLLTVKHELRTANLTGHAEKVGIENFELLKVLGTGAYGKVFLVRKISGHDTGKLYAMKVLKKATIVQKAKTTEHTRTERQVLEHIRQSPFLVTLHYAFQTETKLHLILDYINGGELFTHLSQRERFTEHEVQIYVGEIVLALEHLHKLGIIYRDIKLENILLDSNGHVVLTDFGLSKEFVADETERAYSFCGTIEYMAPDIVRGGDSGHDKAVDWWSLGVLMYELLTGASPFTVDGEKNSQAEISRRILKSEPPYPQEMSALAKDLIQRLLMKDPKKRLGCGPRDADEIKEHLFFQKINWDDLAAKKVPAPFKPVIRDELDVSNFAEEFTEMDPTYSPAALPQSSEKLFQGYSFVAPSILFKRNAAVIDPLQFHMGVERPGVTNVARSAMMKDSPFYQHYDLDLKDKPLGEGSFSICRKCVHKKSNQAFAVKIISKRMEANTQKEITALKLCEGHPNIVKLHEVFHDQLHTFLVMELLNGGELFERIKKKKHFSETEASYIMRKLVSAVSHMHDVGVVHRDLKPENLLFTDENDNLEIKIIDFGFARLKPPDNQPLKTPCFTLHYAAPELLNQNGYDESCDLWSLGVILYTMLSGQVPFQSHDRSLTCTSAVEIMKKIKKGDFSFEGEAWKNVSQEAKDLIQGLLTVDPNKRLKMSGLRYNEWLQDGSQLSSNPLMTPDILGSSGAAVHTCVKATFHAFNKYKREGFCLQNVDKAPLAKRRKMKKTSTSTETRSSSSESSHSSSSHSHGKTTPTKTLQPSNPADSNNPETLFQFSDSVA

CCCS(=O)(=O)Nc1ccc(F)c(C(=O)c2c[nH]c3ncc(Cl)cc23)c1F [PLX 4720]
growth of human melanoma xenografts ([1]; PLX4720 20 mg/kg/day by oral gavage alone): slowed the growth

Cn1cc(C2=C(c3cn(CCCSC(=N)N)c4ccccc34)C(=O)NC2=O)c2ccccc21 [RO 31-8220]
in vivo tumor growth ([2]; RO 31-8220 3 mg/kg i.p. alone): inhibited the growth of a melanoma as well as the BRAF inhibitor (PLX 4720) | pIC50 [3]: 8.10 | effect on MAPK [4]: inhibits | effect on glycogen synthase [5]: Activates | effect on ERK2 [6]: inhibits | effect on JNK [7]: Activates | pIC50 [8]: 7.48

C[C@H]1O[C@@H](O[C@H]2[C@@H](O)C[C@H](O[C@H]3[C@@H](O)C[C@H](O[C@H]4CC[C@@]5(C)[C@H](CC[C@@H]6[C@@H]5CC[C@]5(C)[C@@H](C7=CC(=O)OC7)CC[C@]65O)C4)O[C@@H]3C)O[C@@H]2C)C[C@H](O)[C@@H]1O [digitoxin]
in vivo tumor growth ([2]; digitoxin 0.5 mg/kg i.p. alone, s.c. xenograft, calipers every 2-3 day): inhibited the growth of a melanoma better than BRAF inhibitor (PLX 4720) | growth of human melanoma xenografts ([1]; digitoxin 0.5 mg/kg/day by oral gavage alone): slowed the growth
